Data: ChEMBL document CHEMBL1681640, “Serendipitous discovery of a new class of agonists for the melanocortin 1 and 4 receptors and a new class of cyclophanes” (Bioorg Med Chem Lett, 2011)
The source made the active and inactive calls. The calls are words filed in the database; no cut-off is given here.

How the values were obtained:
[1] = molecular target: T1, Melanocyte-stimulating hormone receptor (Homo sapiens, UniProt Q01726); experiment: Agonist activity at human MC1 receptor expressed in BHK cells assessed as stimulation of agonist-induced cAMP accumulation; assay type: functional, cell-based
Target sequence in this assay (Q01726 whole entry): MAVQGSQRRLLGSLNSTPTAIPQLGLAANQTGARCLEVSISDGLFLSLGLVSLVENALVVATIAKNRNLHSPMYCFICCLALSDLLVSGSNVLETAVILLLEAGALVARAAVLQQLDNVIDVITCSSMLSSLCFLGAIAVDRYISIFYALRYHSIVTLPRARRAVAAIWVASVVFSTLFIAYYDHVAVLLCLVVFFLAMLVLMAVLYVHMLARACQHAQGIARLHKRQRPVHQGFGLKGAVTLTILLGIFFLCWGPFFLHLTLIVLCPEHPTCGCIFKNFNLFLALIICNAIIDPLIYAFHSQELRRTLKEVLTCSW

[2] = molecular target: T1, Melanocyte-stimulating hormone receptor; experiment: Agonist activity at human MC1 receptor expressed in BHK cells assessed as stimulation of agonist-induced cAMP accumulation relative to agonist; assay type: functional, cell-based
Target sequence in this assay (Q01726 whole entry, looked up): as the sequence (Q01726 whole entry) above

Melanocortin receptor 4 [3] = molecular target: T2, Melanocortin receptor 4 (Homo sapiens, UniProt P32245); experiment: Displacement of [125I]NDP-alpha-MSH from human MC4 receptor expressed in BHK cells; assay type: cell-based
Target sequence in this assay (P32245 whole entry): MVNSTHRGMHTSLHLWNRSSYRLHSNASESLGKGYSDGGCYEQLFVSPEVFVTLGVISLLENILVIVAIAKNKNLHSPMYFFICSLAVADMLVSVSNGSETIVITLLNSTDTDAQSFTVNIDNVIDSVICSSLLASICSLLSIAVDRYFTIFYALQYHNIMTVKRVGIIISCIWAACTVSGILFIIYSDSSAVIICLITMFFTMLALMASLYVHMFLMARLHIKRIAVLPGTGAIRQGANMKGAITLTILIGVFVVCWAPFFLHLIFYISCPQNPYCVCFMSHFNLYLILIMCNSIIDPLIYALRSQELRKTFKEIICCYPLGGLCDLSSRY

Melanocortin receptor 3 [4] = molecular target: T3, Melanocortin receptor 3 (Homo sapiens, UniProt P41968); experiment: Displacement of [125I]NDP-alpha-MSH from human MC3 receptor expressed in BHK cells; assay type: cell-based
T3 sequence (P41968 whole entry): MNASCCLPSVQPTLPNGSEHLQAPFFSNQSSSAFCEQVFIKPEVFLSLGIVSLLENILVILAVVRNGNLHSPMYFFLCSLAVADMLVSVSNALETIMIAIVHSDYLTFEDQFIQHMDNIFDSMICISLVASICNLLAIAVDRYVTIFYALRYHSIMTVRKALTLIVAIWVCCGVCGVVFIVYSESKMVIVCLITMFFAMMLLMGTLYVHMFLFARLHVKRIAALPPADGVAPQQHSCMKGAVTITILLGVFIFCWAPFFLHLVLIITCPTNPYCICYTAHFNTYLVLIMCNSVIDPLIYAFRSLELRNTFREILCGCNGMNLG

Melanocortin receptor 4 [5] = molecular target: T2, Melanocortin receptor 4; experiment: Agonist activity at human MC4 receptor expressed in BHK cells assessed as stimulation of agonist-induced cAMP accumulation; assay type: functional, cell-based
Target sequence in this assay (P32245 whole entry): as the sequence (P32245 whole entry) above

Melanocortin receptor 3 [6] = molecular target: T3, Melanocortin receptor 3; experiment: Agonist activity at human MC3 receptor expressed in BHK cells assessed as stimulation of agonist-induced cAMP accumulation; assay type: functional, cell-based
Melanocortin receptor 4 [7] = molecular target: T2, Melanocortin receptor 4; experiment: Agonist activity at human MC4 receptor expressed in BHK cells assessed as stimulation of agonist-induced cAMP accumulation relative to agonist; assay type: functional, cell-based
Target sequence in this assay (P32245 whole entry): as above

[8] = molecular target: T1, Melanocyte-stimulating hormone receptor; experiment: Displacement of [125I]NDP-alpha-MSH from human MC1 receptor expressed in BHK cells; assay type: cell-based
Target sequence in this assay (Q01726 whole entry): as the sequence (Q01726 whole entry) above

Rattus norvegicus = experiment: Reduction in food intake in Sprague-Dawley rat at 0.1 to 1 mg/kg, ip for first 3 hrs; assay type: functional, organism-based
Melanocortin receptor 5 [9] = molecular target: T4, Melanocortin receptor 5 (Homo sapiens, UniProt P33032); experiment: Agonist activity at human MC5 receptor expressed in BHK cells assessed as stimulation of agonist-induced cAMP accumulation; assay type: functional, cell-based
T4 sequence (P33032 whole entry): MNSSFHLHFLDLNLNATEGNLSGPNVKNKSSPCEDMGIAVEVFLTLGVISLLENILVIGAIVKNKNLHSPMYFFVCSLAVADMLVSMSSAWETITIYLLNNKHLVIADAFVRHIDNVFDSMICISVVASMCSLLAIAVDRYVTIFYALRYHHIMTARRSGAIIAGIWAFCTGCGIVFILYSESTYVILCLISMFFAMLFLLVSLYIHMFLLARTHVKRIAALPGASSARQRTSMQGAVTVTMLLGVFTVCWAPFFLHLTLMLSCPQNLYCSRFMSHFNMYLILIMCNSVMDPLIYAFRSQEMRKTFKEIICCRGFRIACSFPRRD

Melanocortin receptor 5 [10] = molecular target: T4, Melanocortin receptor 5; experiment: Displacement of [125I]NDP-alpha-MSH from human MC5 receptor expressed in BHK cells; assay type: cell-based
Melanocortin receptor 4 [11] = molecular target: T2, Melanocortin receptor 4; experiment: Inhibition of human MC4 receptor expressed in BHK cells in presence of SHU9119 receptor antagonist
Target sequence in this assay (P32245 whole entry, looked up): as the sequence (P32245 whole entry) above

EC50 [1] [nM]	Emax [2] [%]	Ki (Melanocortin receptor 4 [3]) [nM]	Ki (Melanocortin receptor 3 [4]) [nM]	EC50 (Melanocortin receptor 4 [5]) [nM]	EC50 (Melanocortin receptor 3 [6]) [nM]	Emax (Melanocortin receptor 4 [7]) [%]	Ki [8] [nM]	EC50 (Melanocortin receptor 5 [9]) [nM]	Ki (Melanocortin receptor 5 [10]) [nM]	inhibition (Melanocortin receptor 4 [11])	SMILES	Activity (Rattus norvegicus)
16	83	392	1180	466	> 10000	61	116	> 10000	388	Active	COCC(=O)N[C@H]1Cc2ccc(OC)c(c2)Cc2ccc(cc2)Oc2cccc(c2)CN(CCCN2CCN(CCCN)CC2)C1=O	Active
12	85	403	4530	697	> 10000	98	328	> 10000	1530	Active	COCC(=O)N[C@H]1Cc2cc3c(c(c2)Cc2ccc(cc2)Oc2cccc(c2)CN(CCCN2CCN(CCCN)CC2)C1=O)OCOC3	–
